Measured values as given in US20090143279A1 (priority 2007, published 2009).
Where two headings read alike, the source gives them in different places.

Assays:
[1] = test system: mitochondrial membrane potential; format: cell-based, mouse; settings: for ΔΨm (composite Z-score): normalized score vs mock-treated (DMSO) wells
[2] = test system: reactive oxygen species; format: cell-based, mouse; settings: for ROS (composite Z-score): normalized score vs mock-treated (DMSO) wells
[3] = test system: OXPHOS gene expression; format: cell-based, mouse; settings: for GE-HTS (composite Z-score): normalized score vs mock-treated (DMSO) wells
[4] = test system: nuOXPHOS transcripts; format: cell-based, mouse; settings: for nucOX (composite Z-score): normalized score vs mock-treated (DMSO) wells
[5] = test system: mtOXPHOS transcripts; format: cell-based, mouse; settings: for mitoOX (composite Z-score): normalized score vs mock-treated (DMSO) wells
[6] = test system: cytochrome c; format: cell-based, mouse; settings: for cyt c (composite Z-score): normalized score vs mock-treated (DMSO) wells
[7] = test system: C2C12 myotubes; settings: for Viability (composite Z-score): normalized score vs mock-treated (DMSO) wells
[8] = test system: cellular dehydrogenase activity; settings: for MTT (composite Z-score): normalized score vs mock-treated (DMSO) wells
[9] = 20 μM, composite Z-score vs DMSO
[10] = 20.6 μM, composite Z-score vs DMSO
[11] = composite Z-score vs DMSO, Conc 20 μM
[12] = normalized composite Z-score vs mock-treated (DMSO) wells, Conc 20 μM
[13] = composite Z-score vs mock-treated (DMSO) wells, Conc 20 μM
[14] = Table 7, C2C12 myotubes, 48 h, composite Z-score
[15] = 25.78 μM, composite Z-score vs DMSO
[16] = composite Z-score vs DMSO wells, Conc 20 μM

Nc1ccc(C(=O)NCC(=O)O)cc1 [aminohippuric acid] gave a ΔΨm [1, 9] of −0.606, a ΔΨm [1, 10] of −0.343 and an ROS [2, 9] of −0.310. The ROS [2, 10] was 0.426, the GE-HTS [3, 9] was 0.220 and the GE-HTS [3, 10] was 0.568. It also gave a nucOX [4, 9] of 0.160, a nucOX [4, 10] of 0.976 and a mitoOX [5, 9] of 0.304. It also gave a mitoOX [5, 10] of −0.395, a cyt c [6, 9] of 0.243 and a cyt c [6, 10] of 0.320. The Viability [7, 9] was 0.597, the Viability [7, 10] was −0.266 and the MTT [8, 9] was −0.983. The MTT [8, 10] was −0.126.
Compound Cc1ccc(/N=C/N(C)/C=N/c2ccc(C)cc2C)c(C)c1 [amitraz] has a ΔΨm [1, 11] of −0.741, an ROS [2, 11] of 0.867 and a GE-HTS [3, 11] of −0.526. It also gave a nucOX [4, 11] of −0.299, a mitoOX [5, 11] of −0.814 and a cyt c [6, 11] of 0.292. For the same compound, the Viability [7, 11] was −1.025 and the MTT [8, 11] was −1.572.
CCN(CC)Cc1cc(Nc2ccnc3cc(Cl)ccc23)ccc1O [amodiaquine] gave a ΔΨm [1, 9] of −1.178, an ROS [2, 9] of 0.877 and a GE-HTS [3, 9] of 0.398. The nucOX [4, 9] was 0.317, the mitoOX [5, 9] was 0.481 and the cyt c [6, 9] was −0.008. For the same compound, the Viability [7, 9] was −0.547 and the MTT [8, 9] was −1.008.
In the case of N=c1ccn2c(n1)O[C@H]1[C@H](O)[C@@H](CO)O[C@H]12 [ancitabine], the “ΔΨm (composite Z-score)” value ([1]; Conc 20 μM) is reported as −0.986, the “ROS (composite Z-score)” value ([2]; Conc 20 μM) is reported as −0.189 and the “GE-HTS (composite Z-score)” value ([3]; Conc 20 μM) is reported as −1.115. The “nucOX (composite Z-score)” value ([4]; Conc 20 μM) was −1.182, the “mitoOX (composite Z-score)” value ([5]; Conc 20 μM) was −0.726 and the “cyt c (composite Z-score)” value ([6]; Conc 20 μM) was −0.158. For the same compound, the “Viability (composite Z-score)” value ([7]; Conc 20 μM) was −0.655 and the “MTT (composite Z-score)” value ([8]; Conc 20 μM) was −2.731.
Work on C=C1CC[C@@H]2[C@](C)(CO)[C@H](O)CC[C@@]2(C)[C@@H]1C/C=C1/C(=O)OC[C@H]1O [andrographolide] yielded a ΔΨm [1, 12] of −0.165, an ROS [2, 12] of −1.813 and a GE-HTS [3, 12] of −1.323. The nucOX [4, 12] was −0.698, the mitoOX [5, 12] was −2.361 and the cyt c [6, 12] was −0.044. The Viability [7, 12] was −0.686 and the MTT [8, 12] was −0.901.
With C[C@]12C=CC(=O)C=C1CC[C@@H]1[C@@H]2CC[C@]2(C)C(=O)CC[C@@H]12 [androsta-1,4-dien-3,17-dione] the ΔΨm [1, 11] was 0.152, the ROS [2, 11] was 0.068 and the GE-HTS [3, 11] was −0.180. For the same compound, the nucOX [4, 11] was −0.143, the mitoOX [5, 11] was −0.189 and the cyt c [6, 11] was 0.261. The Viability [7, 11] was 0.162 and the MTT [8, 11] was −0.500.
For C=C1[C@@H]2CC[C@@]3(C)[C@H](c4ccoc4)OC(=O)C[C@]13O[C@H]1CC(=O)C(C)(C)[C@H](CC(=O)OC)[C@]12C [angolensic acid, methyl ester], the ΔΨm [1, 13] was 0.163, the ROS [2, 13] was 0.465 and the GE-HTS [3, 13] was 0.827. The nucOX [4, 13] was 0.729, the mitoOX [5, 13] was 0.813 and the cyt c [6, 13] was −0.204. The Viability [7, 13] was 1.019 and the MTT [8, 13] was 0.322.
Compound COc1ccc2c(=O)c(CC(=O)O)coc2c1 [anhydrobrazilic acid, reference compound] has a ΔΨm [1, 12] of −0.353, an ROS [2, 12] of 0.388 and a GE-HTS [3, 12] of 1.730. For the same compound, the “nucOXPHOS Z” value [4, 14] was 1.56, the nucOX [4, 12] was 1.559 and the “mito-OXPHOS Z” value [5, 14] was 1.68. The mitoOX [5, 12] was 1.678, the cyt c [6, 12] was 0.579 and the Viability [7, 12] was −0.072. It also gave an MTT [8, 12] of −1.007.
O[C@H]1[C@H](O)[C@@H](O)C2OC[C@H]1O2 [anhydroglucose] gave a ΔΨm [1, 11] of −0.480, an ROS [2, 11] of 0.238 and a GE-HTS [3, 11] of −0.046. For the same compound, the nucOX [4, 11] was 0.322, the mitoOX [5, 11] was −0.745 and the cyt c [6, 11] was 0.688. For the same compound, the Viability [7, 11] was 0.168 and the MTT [8, 11] was 0.041.
CC1=C(/C=C/C(C)=C/C=C/C(C)=C/C=C/C=C(C)/C=C/C=C(C)/C=C/[C@@]23O[C@]2(C)C[C@@H](O)CC3(C)C)C(C)(C)C[C@H](O)C1 [antheraxanthin] was tested, and the ΔΨm [1, 12] was −0.305, the ROS [2, 12] was 0.244 and the GE-HTS [3, 12] was 0.013. It also gave a nucOX [4, 12] of 0.026, a mitoOX [5, 12] of −0.011 and a cyt c [6, 12] of −0.206. For the same compound, the Viability [7, 12] was −0.496 and the MTT [8, 12] was −0.804.
For O=c1cc(-c2ccc(O)cc2)oc2cc(O[C@@H]3O[C@H](CO)[C@@H](O)[C@H](O)[C@H]3O[C@@H]3OC[C@](O)(CO)[C@H]3O)cc(O)c12 [apiin], the ΔΨm [1, 11] was 0.029, the ROS [2, 11] was 0.322 and the GE-HTS [3, 11] was −0.032. It also gave a nucOX [4, 11] of −0.150, a mitoOX [5, 11] of 0.250 and a cyt c [6, 11] of −0.697. For the same compound, the Viability [7, 11] was −0.631 and the MTT [8, 11] was −1.444.
In the case of CN[C@@H]1[C@@H](O[C@H]2O[C@H](CO)[C@@H](N)[C@H](O)[C@H]2O)OC2C[C@@H](N)[C@@H](O[C@H]3[C@H](O)[C@@H](O)[C@H](N)C[C@@H]3N)OC2[C@@H]1O (stereo partly shown) [apramycin], the ΔΨm [1, 11] is reported as −0.407, the ROS [2, 11] is reported as −0.105 and the GE-HTS [3, 11] is reported as 0.477. It also gave a nucOX [4, 11] of 0.413, a mitoOX [5, 11] of 0.494 and a cyt c [6, 11] of 0.223. It also gave a Viability [7, 11] of −1.979 and an MTT [8, 11] of −0.808.
For COC(=O)C1=CCCN(C)C1 [arecoline], the ΔΨm [1, 9] was −0.451, the ΔΨm [1, 15] was −0.281 and the ROS [2, 9] was −1.032. The ROS [2, 15] was −1.084, the GE-HTS [3, 9] was −0.545 and the GE-HTS [3, 15] was 0.098. The nucOX [4, 9] was −0.261, the nucOX [4, 15] was 0.385 and the mitoOX [5, 9] was −1.072. It also gave a mitoOX [5, 15] of −0.513, a cyt c [6, 9] of 0.839 and a cyt c [6, 15] of 0.503. It also gave a Viability [7, 9] of 0.018, a Viability [7, 15] of 0.481 and an MTT [8, 9] of −0.452. For the same compound, the MTT [8, 15] was −0.607.
Work on C[C@@H]1CC[C@H]2[C@@H](C)C(=O)O[C@@H]3O[C@@]4(C)CC[C@@H]1[C@]32OO4 [artemisinin] yielded a ΔΨm [1, 16] of −0.832, an ROS [2, 16] of 0.123 and a GE-HTS [3, 16] of 0.704. It also gave a nucOX [4, 16] of 0.537, a mitoOX [5, 16] of 0.903 and a cyt c [6] of 0.522. The cyt c [6, 16] was 1.104, the Viability [7, 16] was 0.336 and the MTT [8, 16] was 0.616.
With CCCCCC(=O)Cc1cc(O)cc(O)c1C(=O)Oc1cc(CC(=O)CCCCC)c(C(=O)O)c(OC)c1 [arthonioic acid] the ΔΨm [1, 11] was −0.493, the ROS [2, 11] was 1.167 and the GE-HTS [3, 11] was −0.668. The nucOX [4, 11] was −0.590, the mitoOX [5, 11] was −0.657 and the cyt c [6, 11] was −0.019. For the same compound, the Viability [7, 11] was −0.413 and the MTT [8, 11] was −2.597.
For CC1=CC(=O)C2=C(C)C[C@H](O)[C@@H]3[C@H](OC(=O)[C@H]3C)[C@H]12 [austricine], the “ΔΨm (composite Z-score)” value ([1]; Conc 20 μM) was −0.711, the “ROS (composite Z-score)” value ([2]; Conc 20 μM) was 0.665 and the “GE-HTS (composite Z-score)” value ([3]; Conc 20 μM) was 0.165. For the same compound, the “nucOX (composite Z-score)” value ([4]; Conc 20 μM) was 0.081, the “mitoOX (composite Z-score)” value ([5]; Conc 20 μM) was 0.349 and the “cyt c (composite Z-score)” value ([6]; Conc 20 μM) was 0.842. For the same compound, the “Viability (composite Z-score)” value ([7]; Conc 20 μM) was −0.394 and the “MTT (composite Z-score)” value ([8]; Conc 20 μM) was −1.268.
Compound C#CCCCCCCCCCCCC(O)CC(O)CO (stereo not shown) [avocadyne] has a ΔΨm [1, 11] of −0.029, a ΔΨm [1, 12] of −0.266 and an ROS [2, 11] of 0.611. For the same compound, the ROS [2, 12] was 0.322, the GE-HTS [3, 11] was −1.062 and the GE-HTS [3, 12] was 0.405. The nucOX [4, 11] was −1.019, the nucOX [4, 12] was 0.457 and the mitoOX [5, 11] was −0.897. For the same compound, the mitoOX [5, 12] was 0.242, the cyt c [6, 11] was −0.049 and the cyt c [6, 12] was 0.738. It also gave a Viability [7, 11] of −0.546, a Viability [7, 12] of 0.816 and an MTT [8, 11] of −0.646. For the same compound, the MTT [8, 12] was −0.369.
